Assay results from patent US10131652B2, “Pyrimidinyloxy benzene derivatives as herbicides” (E. I. DU PONT DE NEMOURS AND COMPANY, priority 2014, dated 2018).
Where two headings read alike, the source gives them in different places.

How the values were obtained:
Assay in all cases: Test E pre-/postemergence plant response
Format in all cases: in vivo
[1] = tested on: deadnettle (henbit deadnettle, Lamium amplexicaule); conditions: scale 0 to 100, read-out: Plant response rating, Deadnettle; for pest or weed control at 16 g/ha: 16 g ai/ha; for pest or weed control at 31 g/ha: 31 g ai/ha; for pest or weed control at 62 g/ha: 62 g ai/ha; for pest or weed control at 125 g/ha: 125 g ai/ha
In short: (§1)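 Pre-emergence: seeds sown in silt loam soil and sprayed with test chemicals in a non-phytotoxic solvent/surfactant mix. Post-emergence: plants at 2–18 cm (1- to 4-leaf stage) in peat/vermiculite medium treated with the same formulation. Visual rating versus controls after 7–21 days, 0 (no effect) to 100 (complete control).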

[2] = tested on: wild radish (Raphanus raphanistrum); conditions: scale 0 to 100, read-out: Plant response rating, Radish, Wild; for pest or weed control at 16 g/ha: 16 g ai/ha; for pest or weed control at 31 g/ha: 31 g ai/ha; for pest or weed control at 62 g/ha: 62 g ai/ha; for pest or weed control at 125 g/ha: 125 g ai/ha
In short: as §1

[3] = tested on: green foxtail (Setaria viridis); conditions: scale 0 to 100, read-out: Plant response rating, Foxtail, Green; for pest or weed control at 16 g/ha: 16 g ai/ha; for pest or weed control at 31 g/ha: 31 g ai/ha; for pest or weed control at 62 g/ha: 62 g ai/ha; for pest or weed control at 125 g/ha: 125 g ai/ha
In short: as §1

[4] = tested on: lambsquarters (Chenopodium album); conditions: scale 0 to 100, read-out: Plant response rating, Lambsquarters; for pest or weed control at 16 g/ha: 16 g ai/ha; for pest or weed control at 31 g/ha: 31 g ai/ha; for pest or weed control at 62 g/ha: 62 g ai/ha; for pest or weed control at 125 g/ha: 125 g ai/ha
In short: as §1

[5] = tested on: field violet (Viola arvensis); conditions: scale 0 to 100, read-out: Plant response rating, Field Violet; for pest or weed control at 16 g/ha: 16 g ai/ha; for pest or weed control at 31 g/ha: 31 g ai/ha; for pest or weed control at 62 g/ha: 62 g ai/ha; for pest or weed control at 125 g/ha: 125 g ai/ha
In short: as §1

[6] = tested on: wild buckwheat (Polygonum convolvulus); conditions: Fallopia convolvulus, scale 0 to 100, read-out: Plant response rating, Buckwheat, Wild; for pest or weed control at 16 g/ha: 16 g ai/ha; for pest or weed control at 31 g/ha: 31 g ai/ha; for pest or weed control at 62 g/ha: 62 g ai/ha; for pest or weed control at 125 g/ha: 125 g ai/ha
In short: as §1

[7] = tested on: pigweed (Amaranthus retroflexus); conditions: scale 0 to 100, read-out: Plant response rating, Pigweed; for pest or weed control at 16 g/ha: 16 g ai/ha; for pest or weed control at 31 g/ha: 31 g ai/ha; for pest or weed control at 62 g/ha: 62 g ai/ha; for pest or weed control at 125 g/ha: 125 g ai/ha
In short: as §1

[8] = tested on: Italian ryegrass (Lolium multiflorum); conditions: scale 0 to 100, read-out: Plant response rating, Ryegrass, Italian; for pest or weed control at 16 g/ha: 16 g ai/ha; for pest or weed control at 31 g/ha: 31 g ai/ha; for pest or weed control at 62 g/ha: 62 g ai/ha; for pest or weed control at 125 g/ha: 125 g ai/ha
In short: as §1

[9] = tested on: winter wheat (Triticum aestivum); conditions: scale 0 to 100, read-out: Plant response rating, Wheat, Winter; for plant injury at 16 g/ha: 16 g ai/ha; for plant injury at 62 g/ha: 62 g ai/ha; for plant injury at 125 g/ha: 125 g ai/ha
In short: as §1

[10] = tested on: field poppy (Papaver rhoeas); conditions: scale 0 to 100, read-out: Plant response rating, Field Poppy; for pest or weed control at 16 g/ha: 16 g ai/ha; for pest or weed control at 31 g/ha: 31 g ai/ha; for pest or weed control at 62 g/ha: 62 g ai/ha; for pest or weed control at 125 g/ha: 125 g ai/ha
In short: as §1

[11] = tested on: spring wheat (Triticum aestivum); conditions: scale 0 to 100, read-out: Plant response rating, Wheat, Spring; for plant injury at 16 g/ha: 16 g ai/ha; for plant injury at 62 g/ha: 62 g ai/ha; for plant injury at 125 g/ha: 125 g ai/ha
In short: as §1

[12] = post-emergence, 31 g ai/ha, Postemergence

Compound: Fc1cccc(Oc2ncc(Br)cn2)c1-c1cc(C(F)F)no1 [Compound 145, 5-bromo-2-[2-[3-(difluoromethyl)-5-isoxazolyl]-3-fluorophenoxy]pyrimidine]
- pest or weed control at 16 g/ha ([1]; post-emergence, Postemergence): 100%
- pest or weed control at 31 g/ha ([1]; post-emergence, Postemergence): 100%
- pest or weed control at 62 g/ha ([1]; post-emergence, Postemergence): 100%
- pest or weed control at 125 g/ha ([1]; post-emergence, Postemergence): 100%
- pest or weed control at 16 g/ha ([1]; pre-emergence, Preemergence): 0%
- pest or weed control at 31 g/ha ([1]; pre-emergence, Preemergence): 100%
- pest or weed control at 62 g/ha ([1]; pre-emergence, Preemergence): 100%
- pest or weed control at 125 g/ha ([1]; pre-emergence, Preemergence): 100%
- pest or weed control at 16 g/ha ([2]; post-emergence, Postemergence): 95%
- pest or weed control at 31 g/ha ([2]; post-emergence, Postemergence): 100%
- pest or weed control at 62 g/ha ([2]; post-emergence, Postemergence): 100%
- pest or weed control at 125 g/ha ([2]; post-emergence, Postemergence): 100%
- pest or weed control at 16 g/ha ([2]; pre-emergence, Preemergence): 15%
- pest or weed control at 31 g/ha ([2]; pre-emergence, Preemergence): 15%
- pest or weed control at 62 g/ha ([2]; pre-emergence, Preemergence): 85%
- pest or weed control at 125 g/ha ([2]; pre-emergence, Preemergence): 100%
- pest or weed control at 16 g/ha ([3]; post-emergence, Postemergence): 15%
- pest or weed control at 31 g/ha ([3]; post-emergence, Postemergence): 30%
- pest or weed control at 62 g/ha ([3]; post-emergence, Postemergence): 40%
- pest or weed control at 125 g/ha ([3]; post-emergence, Postemergence): 98%
- pest or weed control at 16 g/ha ([3]; pre-emergence, Preemergence): 0%
- pest or weed control at 31 g/ha ([3]; pre-emergence, Preemergence): 45%
- pest or weed control at 62 g/ha ([3]; pre-emergence, Preemergence): 55%
- pest or weed control at 125 g/ha ([3]; pre-emergence, Preemergence): 100%
- pest or weed control at 16 g/ha ([4]; post-emergence, Postemergence): 90%
- pest or weed control at 31 g/ha ([4]; post-emergence, Postemergence): 90%
- pest or weed control at 62 g/ha ([4]; post-emergence, Postemergence): 95%
- pest or weed control at 125 g/ha ([4]; post-emergence, Postemergence): 95%
- pest or weed control at 16 g/ha ([4]; pre-emergence, Preemergence): 100%
- pest or weed control at 31 g/ha ([4]; pre-emergence, Preemergence): 100%
- pest or weed control at 62 g/ha ([4]; pre-emergence, Preemergence): 100%
- pest or weed control at 125 g/ha ([4]; pre-emergence, Preemergence): 100%
- pest or weed control at 16 g/ha ([5]; post-emergence, Postemergence): 65%
- pest or weed control at 31 g/ha ([5]; post-emergence, Postemergence): 100%
- pest or weed control at 62 g/ha ([5]; post-emergence, Postemergence): 90%
- pest or weed control at 125 g/ha ([5]; post-emergence, Postemergence): 100%
- pest or weed control at 16 g/ha ([5]; pre-emergence, Preemergence): 100%
- pest or weed control at 31 g/ha ([5]; pre-emergence, Preemergence): 100%
- pest or weed control at 62 g/ha ([5]; pre-emergence, Preemergence): 100%
- pest or weed control at 125 g/ha ([5]; pre-emergence, Preemergence): 100%
- pest or weed control at 16 g/ha ([6]; post-emergence, Postemergence): 100%
- pest or weed control at 31 g/ha ([6]; post-emergence, Postemergence): 100%
- pest or weed control at 62 g/ha ([6]; post-emergence, Postemergence): 100%
- pest or weed control at 125 g/ha ([6]; post-emergence, Postemergence): 100%
- pest or weed control at 16 g/ha ([6]; pre-emergence, Preemergence): 100%
- pest or weed control at 31 g/ha ([6]; pre-emergence, Preemergence): 100%
- pest or weed control at 62 g/ha ([6]; pre-emergence, Preemergence): 85%
- pest or weed control at 125 g/ha ([6]; pre-emergence, Preemergence): 100%
- pest or weed control at 16 g/ha ([7]; post-emergence, Postemergence): 100%
- pest or weed control at 31 g/ha ([7]; post-emergence, Postemergence): 100%
- pest or weed control at 62 g/ha ([7]; post-emergence, Postemergence): 100%
- pest or weed control at 125 g/ha ([7]; post-emergence, Postemergence): 100%
- pest or weed control at 16 g/ha ([7]; pre-emergence, Preemergence): 100%
- pest or weed control at 31 g/ha ([7]; pre-emergence, Preemergence): 100%
- pest or weed control at 62 g/ha ([7]; pre-emergence, Preemergence): 100%
- pest or weed control at 125 g/ha ([7]; pre-emergence, Preemergence): 100%
- pest or weed control at 16 g/ha ([8]; post-emergence, Postemergence): 5%
- pest or weed control at 31 g/ha ([8]; post-emergence, Postemergence): 10%
- pest or weed control at 62 g/ha ([8]; post-emergence, Postemergence): 25%
- pest or weed control at 125 g/ha ([8]; post-emergence, Postemergence): 40%
- pest or weed control at 16 g/ha ([8]; pre-emergence, Preemergence): 10%
- pest or weed control at 31 g/ha ([8]; pre-emergence, Preemergence): 20%
- pest or weed control at 62 g/ha ([8]; pre-emergence, Preemergence): 50%
- pest or weed control at 125 g/ha ([8]; pre-emergence, Preemergence): 70%
- plant injury at 16 g/ha ([9]; post-emergence, Postemergence): 15%
- plant injury at 31 g/ha [9, 12]: 20%
- plant injury at 62 g/ha ([9]; post-emergence, Postemergence): 35%
- plant injury at 125 g/ha ([9]; post-emergence, Postemergence): 55%
- plant injury at 16 g/ha ([9]; pre-emergence, Preemergence): 0%
- plant injury at 62 g/ha ([9]; pre-emergence, Preemergence): 25%
- plant injury at 125 g/ha ([9]; pre-emergence, Preemergence): 75%
- pest or weed control at 16 g/ha ([10]; post-emergence, Postemergence): 100%
- pest or weed control at 31 g/ha ([10]; post-emergence, Postemergence): 100%
- pest or weed control at 62 g/ha ([10]; post-emergence, Postemergence): 100%
- pest or weed control at 125 g/ha ([10]; post-emergence, Postemergence): 100%
- pest or weed control at 16 g/ha ([10]; pre-emergence, Preemergence): 100%
- pest or weed control at 31 g/ha ([10]; pre-emergence, Preemergence): 100%
- pest or weed control at 62 g/ha ([10]; pre-emergence, Preemergence): 100%
- pest or weed control at 125 g/ha ([10]; pre-emergence, Preemergence): 100%
- plant injury at 16 g/ha ([11]; post-emergence, Postemergence): 30%
- plant injury at 31 g/ha [11, 12]: 35%
- plant injury at 62 g/ha ([11]; post-emergence, Postemergence): 45%
- plant injury at 125 g/ha ([11]; post-emergence, Postemergence): 55%
- plant injury at 16 g/ha ([11]; pre-emergence, Preemergence): 15%
- plant injury at 62 g/ha ([11]; pre-emergence, Preemergence): 20%
- plant injury at 125 g/ha ([11]; pre-emergence, Preemergence): 70%
